Experimental data reported in US20260042764A1, “COMPOSITIONS AND METHODS FOR INHIBITION OF KRAS” (TheRas, Inc., priority 2022, published 2026).

These molecules were tested against T1, Avi-KRAS G12D (1-169) GppNHp/RAF1 RBD-3xFLAG (52-151) (Homo sapiens, UniProt P01116, G12D) (assay: Raf1-KRAS G12D-GppNHP disruption HTRF assay (Biological Example 1)). Details: KRAS G12D, GppNHp-loaded; Table 11.
T1 construct: Avi-KRAS G12D (1-169)
T1 sequence (P01116 1-169 isoform P01116-2 G12D): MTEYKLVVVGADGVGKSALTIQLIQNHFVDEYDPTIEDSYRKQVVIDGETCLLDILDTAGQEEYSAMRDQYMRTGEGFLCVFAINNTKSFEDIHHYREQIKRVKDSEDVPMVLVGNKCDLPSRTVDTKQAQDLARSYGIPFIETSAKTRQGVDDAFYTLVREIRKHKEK
Format: binding
Outline: (§1)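 Read-out is HTRF signal of the KRAS–RAF1 RBD complex, reported as percentage of activity relative to DMSO (100%). Protein mix and detection reagents each incubated 1 h at room temperature with 700 rpm shaking. Buffer: 50 mM Tris pH 7.5, 100 mM NaCl, 5 mM MgCl2, 0.1% BSA, 0.01% Tween, 10% DMSO.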
Work on `CCN(CCO)c1nc(OC[C@@H]2CC3(CC3)CN2C)nc2c(F)c(-c3ccc(F)c4sc(N)c(C#N)c34)c(C(F)(F)F)cc12` [Compound 180] yielded an IC50 of 0.1 to 1 µM. `CN(c1nc(OC[C@@]23CCCN2C[C@H](F)C3)nc2c(F)c(-c3ccc(F)c4sc(N)c(C#N)c34)c(C(F)(F)F)cc12)[C@@H]1C[C@H](O)[C@H]1CO` [Compound 181] showed an IC50 of less than 0.1 µM. For `CN(c1nc(OC[C@@]23CCCN2C[C@H](F)C3)nc2c(F)c(-c3ccc(F)c4sc(N)c(C#N)c34)c(C(F)(F)F)cc12)[C@@H]1C[C@H](O)[C@H]1CC#N` [Compound 182], the IC50 was 0.1 to 1 µM. `CC(=O)N1CCN(c2nc(OC[C@@]34CCCN3C[C@H](F)C4)nc3c(F)c(-c4ccc(F)c5sc(N)c(C#N)c45)c(C(F)(F)F)cc23)C[C@@H]1CC#N` [Compound 183] gave an IC50 of 1 to 10 µM. `CC(=O)N1CCN(c2nc(OC[C@@]34CCCN3C[C@H](F)C4)nc3c(F)c(-c4ccc(F)c5sc(N)c(C#N)c45)c(C(F)(F)F)cc23)C[C@H]1CC#N` [Compound 184] showed an IC50 of 1 to 10 µM. `CCN(c1nc(OC[C@@]23CCCN2C[C@H](F)C3)nc2c(F)c(-c3ccc(F)c4sc(N)c(C#N)c34)c(C(F)(F)F)cc12)[C@@H]1CCN(C(C)=O)[C@@H]1C` [Compound 189] was tested, and the IC50 was 0.1 to 1 µM. Work on `CC(=O)N1CC[C@H](N(C)c2nc(OC[C@@]34CCCN3C[C@H](F)C4)nc3c(F)c(-c4ccc(F)c5sc(N)c(C#N)c45)c(C(F)(F)F)cc23)[C@H]1C` [Compound 191] yielded an IC50 of 0.1 to 1 µM.

Each molecule was assayed against T2, Avi-KRAS G12R (1-169) GppNHp/RAF1 RBD-3xFLAG (52-151) (Homo sapiens, UniProt P01116, G12R) (assay: Raf1-KRAS G12R-GppNHP disruption HTRF assay (Biological Example 1)). Details: KRAS G12R, GppNHp-loaded; Table 11.
T2 construct: Avi-KRAS G12R (1-169)
T2 sequence (P01116 1-169 isoform P01116-2 G12R): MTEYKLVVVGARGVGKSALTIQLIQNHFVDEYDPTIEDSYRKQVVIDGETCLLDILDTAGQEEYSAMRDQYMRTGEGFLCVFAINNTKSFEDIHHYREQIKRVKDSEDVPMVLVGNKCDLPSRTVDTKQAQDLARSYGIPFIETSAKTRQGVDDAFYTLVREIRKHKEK
Format: binding
Outline: as §1
In the case of `CCN(CCO)c1nc(OC[C@@H]2CC3(CC3)CN2C)nc2c(F)c(-c3ccc(F)c4sc(N)c(C#N)c34)c(C(F)(F)F)cc12` [Compound 180], the IC50 is reported as 0.1 to 1 µM. `CN(c1nc(OC[C@@]23CCCN2C[C@H](F)C3)nc2c(F)c(-c3ccc(F)c4sc(N)c(C#N)c34)c(C(F)(F)F)cc12)[C@@H]1C[C@H](O)[C@H]1CO` [Compound 181] gave an IC50 of 0.1 to 1 µM. Molecule `CN(c1nc(OC[C@@]23CCCN2C[C@H](F)C3)nc2c(F)c(-c3ccc(F)c4sc(N)c(C#N)c34)c(C(F)(F)F)cc12)[C@@H]1C[C@H](O)[C@H]1CC#N` [Compound 182] has an IC50 of 0.1 to 1 µM. `CC(=O)N1CCN(c2nc(OC[C@@]34CCCN3C[C@H](F)C4)nc3c(F)c(-c4ccc(F)c5sc(N)c(C#N)c45)c(C(F)(F)F)cc23)C[C@@H]1CC#N` [Compound 183] showed an IC50 of 1 to 10 µM. `CC(=O)N1CCN(c2nc(OC[C@@]34CCCN3C[C@H](F)C4)nc3c(F)c(-c4ccc(F)c5sc(N)c(C#N)c45)c(C(F)(F)F)cc23)C[C@H]1CC#N` [Compound 184] showed an IC50 greater than 10 µM. Work on `CCN(c1nc(OC[C@@]23CCCN2C[C@H](F)C3)nc2c(F)c(-c3ccc(F)c4sc(N)c(C#N)c34)c(C(F)(F)F)cc12)[C@@H]1CCN(C(C)=O)[C@@H]1C` [Compound 189] yielded an IC50 of 0.1 to 1 µM. `CC(=O)N1CC[C@H](N(C)c2nc(OC[C@@]34CCCN3C[C@H](F)C4)nc3c(F)c(-c4ccc(F)c5sc(N)c(C#N)c45)c(C(F)(F)F)cc23)[C@H]1C` [Compound 191] gave an IC50 of 0.1 to 1 µM.

What follows are molecules tested against T3, Avi-KRAS G12V (1-169) GppNHp/RAF1 RBD-3xFLAG (52-151) (Homo sapiens, UniProt P01116, G12V) (assay: Raf1-KRAS G12V-GppNHP disruption HTRF assay (Biological Example 1)). Details: KRAS G12V, GppNHp-loaded; Table 11.
T3 construct: Avi-KRAS G12V (1-169)
T3 sequence (P01116 1-169 isoform P01116-2 G12V): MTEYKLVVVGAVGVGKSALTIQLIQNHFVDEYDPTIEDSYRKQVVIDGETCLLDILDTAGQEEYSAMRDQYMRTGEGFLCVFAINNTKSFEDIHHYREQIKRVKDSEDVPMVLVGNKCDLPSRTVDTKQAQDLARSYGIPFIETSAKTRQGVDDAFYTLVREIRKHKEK
Format: binding
Outline: as §1
Molecule `CCN(CCO)c1nc(OC[C@@H]2CC3(CC3)CN2C)nc2c(F)c(-c3ccc(F)c4sc(N)c(C#N)c34)c(C(F)(F)F)cc12` [Compound 180] has an IC50 of 0.1 to 1 µM. For `CN(c1nc(OC[C@@]23CCCN2C[C@H](F)C3)nc2c(F)c(-c3ccc(F)c4sc(N)c(C#N)c34)c(C(F)(F)F)cc12)[C@@H]1C[C@H](O)[C@H]1CO` [Compound 181], the IC50 was 0.1 to 1 µM. `CN(c1nc(OC[C@@]23CCCN2C[C@H](F)C3)nc2c(F)c(-c3ccc(F)c4sc(N)c(C#N)c34)c(C(F)(F)F)cc12)[C@@H]1C[C@H](O)[C@H]1CC#N` [Compound 182] showed an IC50 of 0.1 to 1 µM. `CC(=O)N1CCN(c2nc(OC[C@@]34CCCN3C[C@H](F)C4)nc3c(F)c(-c4ccc(F)c5sc(N)c(C#N)c45)c(C(F)(F)F)cc23)C[C@@H]1CC#N` [Compound 183] showed an IC50 of 1 to 10 µM. Molecule `CC(=O)N1CCN(c2nc(OC[C@@]34CCCN3C[C@H](F)C4)nc3c(F)c(-c4ccc(F)c5sc(N)c(C#N)c45)c(C(F)(F)F)cc23)C[C@H]1CC#N` [Compound 184] has an IC50 greater than 10 µM. `CCN(c1nc(OC[C@@]23CCCN2C[C@H](F)C3)nc2c(F)c(-c3ccc(F)c4sc(N)c(C#N)c34)c(C(F)(F)F)cc12)[C@@H]1CCN(C(C)=O)[C@@H]1C` [Compound 189] gave an IC50 of 0.1 to 1 µM. With `CC(=O)N1CC[C@H](N(C)c2nc(OC[C@@]34CCCN3C[C@H](F)C4)nc3c(F)c(-c4ccc(F)c5sc(N)c(C#N)c45)c(C(F)(F)F)cc23)[C@H]1C` [Compound 191] the IC50 was 0.1 to 1 µM.

These molecules were tested against T4, Avi-KRAS WT (1-169) GppNHp/RAF1 RBD-3xFLAG (52-151) (Homo sapiens, UniProt P01116) (assay: Raf1-KRAS WT-GppNHP disruption HTRF assay (Biological Example 1)). Details: KRAS WT, GppNHp-loaded; Table 11.
T4 construct: Avi-KRAS WT (1-169)
T4 sequence (P01116 1-169 isoform P01116-2): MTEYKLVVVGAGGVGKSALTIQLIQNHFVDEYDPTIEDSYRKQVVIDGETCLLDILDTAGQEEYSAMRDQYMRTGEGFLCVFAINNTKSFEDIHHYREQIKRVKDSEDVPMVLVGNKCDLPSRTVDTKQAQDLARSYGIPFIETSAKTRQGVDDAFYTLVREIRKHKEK
Format: binding
Outline: as §1
`CCN(CCO)c1nc(OC[C@@H]2CC3(CC3)CN2C)nc2c(F)c(-c3ccc(F)c4sc(N)c(C#N)c34)c(C(F)(F)F)cc12` [Compound 180] showed an IC50 of 0.1 to 1 µM. In the case of `CN(c1nc(OC[C@@]23CCCN2C[C@H](F)C3)nc2c(F)c(-c3ccc(F)c4sc(N)c(C#N)c34)c(C(F)(F)F)cc12)[C@@H]1C[C@H](O)[C@H]1CO` [Compound 181], the IC50 is reported as less than 0.1 µM. For `CN(c1nc(OC[C@@]23CCCN2C[C@H](F)C3)nc2c(F)c(-c3ccc(F)c4sc(N)c(C#N)c34)c(C(F)(F)F)cc12)[C@@H]1C[C@H](O)[C@H]1CC#N` [Compound 182], the IC50 was 0.1 to 1 µM. In the case of `CC(=O)N1CCN(c2nc(OC[C@@]34CCCN3C[C@H](F)C4)nc3c(F)c(-c4ccc(F)c5sc(N)c(C#N)c45)c(C(F)(F)F)cc23)C[C@@H]1CC#N` [Compound 183], the IC50 is reported as 1 to 10 µM. In the case of `CC(=O)N1CCN(c2nc(OC[C@@]34CCCN3C[C@H](F)C4)nc3c(F)c(-c4ccc(F)c5sc(N)c(C#N)c45)c(C(F)(F)F)cc23)C[C@H]1CC#N` [Compound 184], the IC50 is reported as greater than 10 µM. With `CCN(c1nc(OC[C@@]23CCCN2C[C@H](F)C3)nc2c(F)c(-c3ccc(F)c4sc(N)c(C#N)c34)c(C(F)(F)F)cc12)[C@@H]1CCN(C(C)=O)[C@@H]1C` [Compound 189] the IC50 was 0.1 to 1 µM. `CC(=O)N1CC[C@H](N(C)c2nc(OC[C@@]34CCCN3C[C@H](F)C4)nc3c(F)c(-c4ccc(F)c5sc(N)c(C#N)c45)c(C(F)(F)F)cc23)[C@H]1C` [Compound 191] gave an IC50 of 0.1 to 1 µM.

What follows are molecules tested on GP2d cells (KRAS G12D) (assay: Cell-based pERK HTRF assay in GP2d cell (Biological Example 2)). Details: GP2d, GP2d (KRAS G12D) cells, pERK HTRF.
Outline: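 Cells grown in DMEM with 10% FBS were exposed to compound for 60 min at 0.25% DMSO, using a 9-point half-log series starting at 1 μM or 100 nM. Lysates were then mixed with d2 and Eu cryptate antibodies for 4–24 h at room temperature, and pERK was read by HTRF.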
`CCN(CCO)c1nc(OC[C@@H]2CC3(CC3)CN2C)nc2c(F)c(-c3ccc(F)c4sc(N)c(C#N)c34)c(C(F)(F)F)cc12` [Compound 180] was tested, and the IC50 was less than 0.1 µM. `CN(c1nc(OC[C@@]23CCCN2C[C@H](F)C3)nc2c(F)c(-c3ccc(F)c4sc(N)c(C#N)c34)c(C(F)(F)F)cc12)[C@@H]1C[C@H](O)[C@H]1CO` [Compound 181] gave an IC50 of less than 0.1 µM. Work on `CN(c1nc(OC[C@@]23CCCN2C[C@H](F)C3)nc2c(F)c(-c3ccc(F)c4sc(N)c(C#N)c34)c(C(F)(F)F)cc12)[C@@H]1C[C@H](O)[C@H]1CC#N` [Compound 182] yielded an IC50 of less than 0.1 µM. `CC(=O)N1CCN(c2nc(OC[C@@]34CCCN3C[C@H](F)C4)nc3c(F)c(-c4ccc(F)c5sc(N)c(C#N)c45)c(C(F)(F)F)cc23)C[C@@H]1CC#N` [Compound 183] gave an IC50 of 0.1 to 1 µM. `CC(=O)N1CCN(c2nc(OC[C@@]34CCCN3C[C@H](F)C4)nc3c(F)c(-c4ccc(F)c5sc(N)c(C#N)c45)c(C(F)(F)F)cc23)C[C@H]1CC#N` [Compound 184] was tested, and the IC50 was 0.1 to 1 µM. `CCN(c1nc(OC[C@@]23CCCN2C[C@H](F)C3)nc2c(F)c(-c3ccc(F)c4sc(N)c(C#N)c34)c(C(F)(F)F)cc12)[C@@H]1CCN(C(C)=O)[C@@H]1C` [Compound 189] showed an IC50 of less than 0.1 µM. For `CC(=O)N1CC[C@H](N(C)c2nc(OC[C@@]34CCCN3C[C@H](F)C4)nc3c(F)c(-c4ccc(F)c5sc(N)c(C#N)c45)c(C(F)(F)F)cc23)[C@H]1C` [Compound 191], the IC50 was less than 0.1 µM.
